The target of this assay is T1, SIRT1 (Homo sapiens, UniProt Q96EB6).
T1 sequence (Q96EB6 1-747): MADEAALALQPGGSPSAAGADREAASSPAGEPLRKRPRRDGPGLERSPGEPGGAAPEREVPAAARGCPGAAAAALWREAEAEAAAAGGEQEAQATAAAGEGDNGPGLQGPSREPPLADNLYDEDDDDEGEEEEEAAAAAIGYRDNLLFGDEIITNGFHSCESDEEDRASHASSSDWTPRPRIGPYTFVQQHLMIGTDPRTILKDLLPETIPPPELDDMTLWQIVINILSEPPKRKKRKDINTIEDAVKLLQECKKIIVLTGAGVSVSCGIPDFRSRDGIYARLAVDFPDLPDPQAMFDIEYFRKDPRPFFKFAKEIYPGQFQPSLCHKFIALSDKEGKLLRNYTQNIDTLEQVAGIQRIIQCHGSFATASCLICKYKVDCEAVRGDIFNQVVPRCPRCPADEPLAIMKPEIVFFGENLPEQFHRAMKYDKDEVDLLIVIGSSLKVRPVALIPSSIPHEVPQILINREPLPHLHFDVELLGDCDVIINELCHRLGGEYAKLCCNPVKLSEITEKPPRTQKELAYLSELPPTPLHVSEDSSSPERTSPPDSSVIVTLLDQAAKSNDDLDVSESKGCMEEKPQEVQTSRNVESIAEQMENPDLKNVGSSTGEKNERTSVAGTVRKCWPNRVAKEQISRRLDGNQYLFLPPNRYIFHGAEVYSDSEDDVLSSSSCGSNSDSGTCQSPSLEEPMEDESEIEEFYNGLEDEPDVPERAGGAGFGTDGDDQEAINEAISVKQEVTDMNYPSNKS
The assay can be described thus: Trp mass spectrometry assay (SIRT1 activation). Format: biochemical. The conditions noted are these: for Emax: percent maximum fold activation of SIRT1, read-out: Tryp % Fold Act. Summed up:
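N-His-tagged SIRT1 (10 nM), expressed in E. coli, was incubated with 0.5 μM Ac-RHKK(Ac)W-NH2 peptide and 120 μM NAD+ for 25 min at 25 °C in HEPES pH 7.5 with […]. The reaction was stopped with formic acid and O-acetyl-ADP-ribose or deacetylated peptide was quantified by mass spectrometry. Results are given as EC1.5 and percent maximal activation relative to DMSO control.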

Setting [1] is: Trp mass spectrometry assay, EC1.5 = concentration of test compound that results in 150% activation of SIRT1.
[2] abbreviates: concentration of test compound that results in 150% activation of SIRT1, Trp peptide substrate.
[3] abbreviates: Trp mass spectrometry assay, EC1.5 = concentration giving 150% activation of SIRT1.

Like-named read-outs stand apart in the source and are kept apart here.

Turning to `O=C(Nc1ccncn1)N1c2nc(-c3cccc(Cl)c3)ccc2N2CC[C@H]1C2` [Example 110], the “Tryp AVG EC1.5 (μM)” value under setting [1] was “A (EC1.5<1 μM)”. Besides, for the setting “Trp mass spectrometry assay”, the Emax is ≥ 150%.
The matching figures for `Cn1ccc(NC(=O)N2c3nc(-c4cccc(Cl)c4)ccc3N3CC[C@H]2C3)n1` [Example 109]: “B (EC1.5 1-25 μM)” and ≥ 150%.
Take `Cc1nc(NC(=O)N2c3nc(-c4cccc(N5CCOCC5)c4)ccc3N3CCC[C@H]2C3)sc1C` [Example 537]: the “Tryp AVG EC1.5 (μM)” value under setting [2] is given as “B (EC1.5 1-25 μM)”. For the same molecule, the Emax (Trp peptide substrate) is ≥ 150%.
`O=C(Nc1cccc(-c2cnco2)n1)N1c2nc(-c3cncc(F)c3)ccc2N2CC[C@H]1C2` [Example 739]: under setting [3], the “Tryp AVG EC1.5 (μM)” value is “A (EC1.5<1 μM)”. The Emax (Trp mass spectrometry assay) was ≥ 150%.
For `O=C(Nc1ccccn1)N1c2nc(-c3cncc(F)c3)ccc2N2CC[C@H]1C2` [Example 374], the “Tryp AVG EC1.5 (μM)” value under setting [2] is “B (EC1.5 1-25 μM)”. Moreover, under “Trp peptide substrate”, the Emax is ≥ 150%.
The matching figures for `Cc1cc(-c2ccc3c(n2)N(C(=O)Nc2cnccn2)[C@H]2CCN3C2)ccn1` [Example 222]: “A (EC1.5<1 μM)” and ≥ 150%.
On to `Cc1cncc(-c2ccc3c(n2)N(C(=O)Nc2cccnc2)[C@H]2CCCN3C2)c1` [Example 515], for which the “Tryp AVG EC1.5 (μM)” value under setting [2] is given as “A (EC1.5<1 μM)”. For the same molecule, for the setting “Trp peptide substrate”, the Emax was ≥ 150%.
Turning to `O=C(NCc1ccc(NC(=O)N2c3nc(-c4cccc(C(F)(F)F)c4)ccc3N3CC[C@H]2C3)cc1)OC[C@@H]1[C@@H]2CCC#CCC[C@@H]21` [Example 796], the “Tryp AVG EC1.5 (μM)” value under setting [3] was “B (EC1.5 1-25 μM)”. Besides, where the note is “Trp mass spectrometry assay”, the Emax is ≥ 150%.
Turning to `CC(C)(C)OC(=O)NCCCc1cc(NC(=O)N2c3nc(-c4cccc(C(F)(F)F)c4)ccc3N3CC[C@H]2C3)cc(-c2cnco2)c1` [Example 759], the “Tryp AVG EC1.5 (μM)” value under setting [3] was “B (EC1.5 1-25 μM)”. The Emax (Trp mass spectrometry assay) is ≥ 150%.
For the molecule `CN(C)c1cccc(-c2ccc3c(n2)N(C(=O)Nc2ccccn2)[C@@H]2CCCN3C2)c1` [Example 251], the “Tryp AVG EC1.5 (μM)” value under setting [2] is “C (EC1.5>25 μM)”. Besides, the Emax (Trp peptide substrate) is ≥ 150%.
On the same counts, the results for `Cn1ccc(-c2ccc3c(n2)N(C(=O)Nc2ccccn2)[C@H]2CCN3C2)n1` [Example 331] are “B (EC1.5 1-25 μM)” and ≥ 150%.
For `O=C(Nc1cccc(CN2CCOCC2)c1)N1c2nc(-c3cccc(C(F)(F)F)c3)ccc2N2CC[C@H]1C2` [Example 629], the “Tryp AVG EC1.5 (μM)” value under setting [3] is “A (EC1.5<1 μM)”. For the same molecule, the Emax (Trp mass spectrometry assay) is ≥ 150%.
On to `O=C(Nc1cccc(-c2ccccc2)c1)N1c2nc(-c3cccc(C(F)(F)F)c3)ccc2N2CC[C@H]1C2` [Example 625], for which the “Tryp AVG EC1.5 (μM)” value under setting [3] is on record as “A (EC1.5<1 μM)”. Moreover, the Emax (Trp mass spectrometry assay) was ≥ 150%.
In the case of `Cc1ccc(-c2ccc3c(n2)N(C(=O)Nc2nc(C)c(C)s2)[C@H]2CCCN3C2)cn1` [Example 506], under setting [2], the “Tryp AVG EC1.5 (μM)” value is recorded as “A (EC1.5<1 μM)”. The Emax (Trp peptide substrate) was ≥ 150%.
The matching figures for `O=C(Nc1ccncc1F)N1c2nc(-c3cccc(Cl)c3)ccc2N2CCC[C@H]1C2` [Example 421]: “A (EC1.5<1 μM)” and ≥ 150%.
The matching figures for `O=C(Nc1ccc(F)cn1)N1c2nc(-c3cncc(F)c3)ccc2N2CCC[C@H]1C2` [Example 431]: “A (EC1.5<1 μM)” and ≥ 150%.
Regarding `CC(=O)O[C@@H]1CN2C[C@H]1N(C(=O)Nc1ccccn1)c1nc(-c3cccc(C(F)(F)F)c3)ccc12` [Example 602], the “Tryp AVG EC1.5 (μM)” value under setting [2] is on record as “B (EC1.5 1-25 μM)”. In addition, for the setting “Trp peptide substrate”, the Emax is ≥ 150%.
For `Cn1ncc2cc(NC(=O)N3c4nc(-c5cccc(C(F)(F)F)c5)ccc4N4CC[C@H]3C4)ccc21` [Example 87], under setting [1], the “Tryp AVG EC1.5 (μM)” value is recorded as “A (EC1.5<1 μM)”. Also, the Emax (Trp mass spectrometry assay) is ≥ 150%.
As for `O=C(Nc1cncc(F)c1)N1c2nc(-c3cccc(C(F)(F)F)c3)ccc2N2CCC[C@H]1C2` [Example 45], the Emax (Trp mass spectrometry assay) was ≥ 150%.
Turning to `O=C(Nc1ccc(F)cn1)N1c2nc(-c3cccc(CC(O)CO)c3)ccc2N2CC[C@H]1C2` (stereo partly drawn) [Example 356], the “Tryp AVG EC1.5 (μM)” value under setting [2] is listed as “A (EC1.5<1 μM)”. Also, under “Trp peptide substrate”, the Emax is ≥ 150%.

Values taken from patent US9765075B2, “Substituted bridged urea analogs as sirtuin modulators” (GLAXOSMITHKLINE LLC, priority 2013, dated 2017).
